The text below walks through data of patent US20190076384A1, “METHODS FOR TREATING UREA CYCLE DISORDERS” (priority 2017, published 2019).

Like-named read-outs stand apart in the source and are kept apart here.

Data set [1] concerns the target T1, CYP1A2 (Homo sapiens, UniProt P05177).
T1 construct: from tissue; host or cells: human liver microsomes
T1 sequence (P05177 1-516): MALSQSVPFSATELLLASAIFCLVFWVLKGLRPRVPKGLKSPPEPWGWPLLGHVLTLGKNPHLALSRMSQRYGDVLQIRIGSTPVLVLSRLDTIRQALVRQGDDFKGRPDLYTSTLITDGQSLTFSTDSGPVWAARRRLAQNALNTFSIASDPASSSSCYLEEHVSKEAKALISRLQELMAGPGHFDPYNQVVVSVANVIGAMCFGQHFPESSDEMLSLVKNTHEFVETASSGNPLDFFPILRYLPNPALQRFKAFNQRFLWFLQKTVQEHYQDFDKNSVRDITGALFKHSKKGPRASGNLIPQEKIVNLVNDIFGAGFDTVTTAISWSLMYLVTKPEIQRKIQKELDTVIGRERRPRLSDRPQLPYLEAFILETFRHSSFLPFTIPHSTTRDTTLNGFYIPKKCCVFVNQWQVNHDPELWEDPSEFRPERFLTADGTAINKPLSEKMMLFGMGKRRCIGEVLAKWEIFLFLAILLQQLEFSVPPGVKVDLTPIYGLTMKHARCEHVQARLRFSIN
Format: in vitro ADME. The conditions noted are these: for % Inhibition: 7-ethoxyresorufin-O-deethylase, 5 mM.

In data set [2] the target is T2, CYP2C8 (Homo sapiens, UniProt P10632).
T2 construct: from tissue; host or cells: human liver microsomes
T2 sequence (P10632 1-490): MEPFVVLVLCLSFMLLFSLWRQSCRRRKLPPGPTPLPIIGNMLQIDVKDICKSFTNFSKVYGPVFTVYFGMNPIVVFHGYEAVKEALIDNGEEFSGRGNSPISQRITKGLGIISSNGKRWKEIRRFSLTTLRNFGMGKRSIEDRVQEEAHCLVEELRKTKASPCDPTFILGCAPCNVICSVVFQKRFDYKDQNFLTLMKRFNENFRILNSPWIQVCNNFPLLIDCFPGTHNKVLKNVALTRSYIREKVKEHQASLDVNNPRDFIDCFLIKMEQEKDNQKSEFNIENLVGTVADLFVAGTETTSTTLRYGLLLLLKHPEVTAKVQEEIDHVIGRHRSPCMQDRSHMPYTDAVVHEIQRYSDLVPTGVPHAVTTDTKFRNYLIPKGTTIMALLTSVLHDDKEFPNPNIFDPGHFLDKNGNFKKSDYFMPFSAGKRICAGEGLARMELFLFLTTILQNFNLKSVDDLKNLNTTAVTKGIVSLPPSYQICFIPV
Description: In vitro CYP inhibition study, human liver microsomes, CYP2C8. The conditions noted are these: for % Inhibition: Taxol 6α-hydroxylase, 5 mM. Format: in vitro ADME. In general terms: Microsomes from liver hold many membrane-bound enzymes, among them those of drug oxidation.

Data set [3] addresses T3, CYP2C19 (Homo sapiens, UniProt P33261).
T3 construct: from tissue; host or cells: human liver microsomes
It counts as in vitro ADME. The conditions noted are these: for % Inhibition: S-Mephenytoin 4′-hydroxylase, 5 mM.

Data set [4] has as its system CYP3A4/5. Format: in vitro ADME, human. The conditions noted are these: Testosterone 6β-hydroxylase, 5 mM.
In data set [5] the test system is CYP3A4/5.
Data set [6] in a line: Mean peak concentration of PBA and PAA in different patient populations.
The target of data set [7] is Cytochrome P450 3A4 (Homo sapiens, UniProt P08684). Put plainly: clinical. The conditions noted are these: for overall 1′-OH-midazolam exposure (based on AUC) increased by: free+conjugates. Here is the method: (§1) Methodology: This was a Phase 1, open-label, monosequence crossover, drug-drug interaction study of RAVICTI® and midazolam in healthy male and female subjects.
Sequence of Cytochrome P450 3A4 (P08684 whole entry): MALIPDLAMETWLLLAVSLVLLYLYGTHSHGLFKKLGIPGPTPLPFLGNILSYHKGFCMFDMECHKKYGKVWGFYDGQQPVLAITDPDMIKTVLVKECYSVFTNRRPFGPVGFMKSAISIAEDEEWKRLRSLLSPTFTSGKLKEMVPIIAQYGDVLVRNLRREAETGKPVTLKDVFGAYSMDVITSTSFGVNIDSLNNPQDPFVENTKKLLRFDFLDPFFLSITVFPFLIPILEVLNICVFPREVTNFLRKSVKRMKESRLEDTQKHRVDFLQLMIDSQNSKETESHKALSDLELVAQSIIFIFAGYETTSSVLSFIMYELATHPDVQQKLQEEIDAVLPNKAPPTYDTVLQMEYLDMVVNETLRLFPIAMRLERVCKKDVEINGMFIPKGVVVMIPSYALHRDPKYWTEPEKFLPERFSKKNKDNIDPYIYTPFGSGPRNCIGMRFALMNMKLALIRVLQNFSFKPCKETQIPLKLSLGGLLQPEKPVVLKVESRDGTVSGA
(§2) Single doses of midazolam HCl syrup (2 mg/mL) were administered in the morning following an approximate 10-hour fast on Days 1 and 5 (coadministered with RAVICTI® on Day 5) just prior to administration of breakfast (˜5 minutes before breakfast).
(§3) Pharmacokinetics: Blood samples for the analysis of plasma midazolam and its metabolite (1′-OH-midazolam, free+conjugates) levels were collected via an indwelling catheter and/or via direct venipuncture. Blood samples were collected on Days 1 and 5 at the following time points: predose, 0.5, 1, 2, 3, 4, 6, 8, 10, 12, 16, and 24 hours postdose. In addition, five plasma PK samples for GPB analysis were collected on Day 4 at the following time points: at 1 minute, 30 minutes, and 1 hour following the first morning dose of RAVICTI; at 30 minutes and 1 hour post second dose of RAVICTI.
(§4) Pharmacokinetics: The possible drug-drug interaction was examined between coadministration of RAVICTI and midazolam (test) and midazolam administered alone (reference). An analysis of variance (ANOVA), with treatment as a fixed effect and subject as a random effect, was performed. Data for Cmax, AUC0-t, and AUC0-∞, as appropriate, were natural log (ln)-transformed prior to analysis. The 90% confidence intervals (CIs) of the test group means relative to the reference group means were obtained by taking the antilog of the corresponding 90% CIs for the differences between the means on the log scale, i.e., ratio of geometric least-squares (LS) means.

Data set [8] deals with CYP2C9 (Homo sapiens, UniProt P11712). Description: clinical. The conditions noted are these: both, human, plasma, oral, 200 mg. On the procedure: (§5) Methodology: This was an open-label, 2-period, monosequence crossover, drug-drug interaction (DDI) study of RAVICTI and celecoxib in healthy male and female subjects.
Sequence of CYP2C9 (P11712 whole entry): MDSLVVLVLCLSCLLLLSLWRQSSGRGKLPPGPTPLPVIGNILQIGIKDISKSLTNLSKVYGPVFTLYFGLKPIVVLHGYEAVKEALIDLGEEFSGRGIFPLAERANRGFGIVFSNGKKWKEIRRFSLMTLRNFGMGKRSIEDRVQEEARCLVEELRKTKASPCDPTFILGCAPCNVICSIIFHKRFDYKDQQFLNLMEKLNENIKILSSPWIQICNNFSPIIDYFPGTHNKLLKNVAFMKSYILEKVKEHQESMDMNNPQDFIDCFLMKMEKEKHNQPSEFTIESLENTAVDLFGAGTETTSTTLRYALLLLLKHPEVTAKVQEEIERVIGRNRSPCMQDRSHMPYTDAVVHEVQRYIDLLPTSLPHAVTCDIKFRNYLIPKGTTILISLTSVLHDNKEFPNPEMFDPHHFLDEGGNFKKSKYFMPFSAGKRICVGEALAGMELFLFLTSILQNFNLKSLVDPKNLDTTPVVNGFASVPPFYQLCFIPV
(§6) Test Product, Dose, Duration, and Mode of Administration: In Treatment A (Period 1), subjects received 200 mg celecoxib (1×200 mg capsule) administered orally with approximately 240 mL of water following an overnight fast and approximately 5 minutes prior to the start of a standard breakfast on Day 1.
(§7) Pharmacokinetics: Blood samples (4 mL) for the analysis of plasma celecoxib were collected on Days 1 (Period 1) and 4 (Period 2) at the following time points: predose (Hour 0) and 1, 2, 3, 4, 6, 8, 12, 16, 24, 36, 48, 60, and 72 hours postdose. A blood sample (6 mL) for CYP2C9 genotyping was collected at screening to exclude any subjects with a slow metabolizer genotype (i.e., CYP2C9*2/*2, CYP2C9*2/*3, CYP2C9*1/*3, and CYP2C9*3/*3). PK parameters for celecoxib in plasma were computed following Day 1 (Period 1) and Day 4 (Period 2) blood draws and included AUC0-t, AUC0-inf, AUC%extr, Cmax, tmax, t1/2, kel, and CL/F.
(§8) Pharmacokinetics: The possible DDI was examined between co-administration of RAVICTI and celecoxib (Treatment B, test) and celecoxib administered alone (Treatment A, reference). An analysis of variance (ANOVA) was performed with treatment as a fixed effect and subject as a random effect. Data for AUC0-t, AUC0-inf, and Cmax, as appropriate, were ln-transformed prior to analysis. The 90% confidence intervals (CIs) of the test group means relative to the reference group means were obtained by taking the antilog of the corresponding 90% CIs for the differences between the means on the log scale, i.e., ratio of geometric least-squares (LS) means.

In data set [9] the target is Cytochrome P450 2C9 (Homo sapiens, UniProt P11712). Description: clinical. The conditions noted are these: 200 mg celecoxib with RAVICTI 4 mL three times a day for 6 days, fed conditions. Here is the method: as §5, §6, §7, §8
Sequence of Cytochrome P450 2C9 (P11712 whole entry): as above
Data set [10] has as its target CYP3A4 (Homo sapiens, UniProt P08684). Description: clinical. The conditions noted are these: both, human, in vivo, 3 mg. On the procedure: as §1, §2, §3, §4
Where [11] appears, read: after RAVICTI 4 mL three times a day for 3 days, fed conditions, healthy subjects.
Setting [12] is: upon coadministration with multiple-dose RAVICTI.

T3 sequence (P33261 whole entry): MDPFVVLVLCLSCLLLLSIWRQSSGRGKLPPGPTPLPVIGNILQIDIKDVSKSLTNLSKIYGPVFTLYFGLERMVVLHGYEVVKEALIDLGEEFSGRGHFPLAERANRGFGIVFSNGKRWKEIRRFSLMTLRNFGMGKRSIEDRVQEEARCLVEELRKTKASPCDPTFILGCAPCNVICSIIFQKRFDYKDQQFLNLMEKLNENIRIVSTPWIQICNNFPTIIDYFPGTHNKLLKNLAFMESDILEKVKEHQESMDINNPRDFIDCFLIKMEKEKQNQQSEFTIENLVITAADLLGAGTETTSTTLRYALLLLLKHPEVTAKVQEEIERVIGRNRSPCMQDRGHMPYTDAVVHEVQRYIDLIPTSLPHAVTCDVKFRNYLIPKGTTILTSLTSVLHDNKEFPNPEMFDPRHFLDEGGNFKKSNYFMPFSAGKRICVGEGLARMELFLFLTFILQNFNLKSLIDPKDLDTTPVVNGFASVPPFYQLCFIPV
Sequence of CYP3A4 (P08684 whole entry): as the sequence (P08684 whole entry) above

Usually % Inhibition stands for the share of the control response that was lost under treatment. Consider phenylbutyrate [PBA], for which, in [1] (5 mM (0.821 mg/ml)), the “inhibition of CYP1A2 (in words)” value is on record as “did not inhibit”. Further, the “% Inhibition” value in data set [1] (pre-incubation time 0 min) was 6%; in data set [1] (pre-incubation time 30 min), 2%; in [2] (pre-incubation time 0 min), 24%; in data set [2] (pre-incubation time 30 min) it was 27%; in data set [3] (pre-incubation time 0 min), 26%; in data set [3] (pre-incubation time 30 min), 19%. Also, the “% Inhibition” value is listed as 80% in [4] (pre-incubation time 0 min) and 85% in data set [4] (pre-incubation time 30 min). In [2] (5 mM (0.821 mg/ml)), the “inhibition of CYP2C8 (in words)” value was “did not inhibit”. Also, the “inhibition of CYP2C19 (in words)” value in data set [3] (5 mM (0.821 mg/ml)) is “did not inhibit”. Also, the “extent of induction lower compared to the positive control (rifampicin)” value in [5] is given as “about 50%”. In addition, the “PBA Mean peak concentration” value was 0.1412 mg/mL in data set [6] (Cirrhotic - HE 9 ml BID), 0.037 mg/mL in data set [6] (Healthy volunteer), 0.0701 mg/mL in [6] (UCD adult) and 0.0956 mg/mL in [6] (UCD pediatric).

In the case of `OCc1ncc2n1-c1ccc(Cl)cc1C(c1ccccc1F)=NC2` [1′-OH-midazolam], in data set [7] (setting [11]), the “mean AUC for 1-hydroxy midazolam higher than midazolam alone” value was found to be 58% and the “mean Cmax for 1-hydroxy midazolam higher than midazolam alone” value is recorded as 28%. Further, in [7] (setting [12]), the “1′-OH-midazolam Cmax (peak exposure) increased by” value is 28% and the “overall 1′-OH-midazolam exposure (based on AUC) increased by” value was “approximately 60%”. Further, in data set [7] (upon coadministration with multiple-dose RAVICTI, listed as 1′-hydroxy-midazolam), the “overall 1′-OH-midazolam exposure (based on AUC) increased by” value is 60%.

The AUC(0-inf) is the area under the concentration-time curve extrapolated to infinity. Lower therefore signals low exposure. A word on the AUC(0-t): it is the area under the concentration-time curve up to a stated or last time point. In general, Cmax refers to the maximum level reached in the sampled fluid or tissue. In [8], `Cc1ccc(-c2cc(C(F)(F)F)nn2-c2ccc(S(N)(=O)=O)cc2)cc1` [Celecoxib, celecoxib] came in with an AUC(0-inf) of 5440 ng·h/mL, an AUC(0-t) of 5170 ng·h/mL and a maximum concentration (Cmax) of 620 ng/mL. Moreover, in data set [9], the “mean AUC for celecoxib lower than celecoxib alone” value stood at 8% and the “mean Cmax for celecoxib lower than celecoxib alone” value is given as 13%.

As to `Cc1ncc2n1-c1ccc(Cl)cc1C(c1ccccc1F)=NC2` [Midazolam, midazolam], in data set [10], the AUC(0-inf) was 67 ng·h/mL, the exposure AUC(0-t) is 64.7 ng·h/mL and the maximum concentration (Cmax) was 16.8 ng/mL. In [7] (setting [11]), the “mean AUC for midazolam lower than midazolam alone” value amounted to 32% and the “mean Cmax for midazolam lower than midazolam alone” value worked out at 25%. Also, in [7] (setting [12]), the “midazolam overall exposure reduced by” value is reported as ~32% and the “midazolam peak exposure reduced by” value is given as “approximately 26%”. The “midazolam peak exposure reduced by” value in data set [7] (upon coadministration with multiple-dose RAVICTI, listed as midazolam) was found to be 26%.
